Measured values as given in US20220169632A1, “METHODS AND MATERIALS FOR INCREASING OR MAINTAINING NICOTINAMIDE MONONUCLEOTIDE ADENYLYL TRANSFERASE-2 (NMNAT2) POLYPEPTIDE LEVELS” (University of Pittsburgh - Of the Commonwealth System of …, priority 2019, published 2022).

Tested on: NMNAT2
Experiment: NMNAT2-Hibit nano-luciferase activity in stably transfected U87MG cells, various concentrations, 24 hours
Assay type: cell-based
Details: U87MG cells stably transfected with NMNAT2-Hibit luc plasmid
Method: Selected compounds were tested in vitro. U87MG cells were stably transfected with NMNAT2-Hibit luc plasmid. Cells were treated with a test compound at various concentrations for 24 hours. Cells were then collected and assayed for nano-luciferase activity.

Row | Structure (SMILES) | E: compound efficacy for NMNAT2 activation (concentration giving >25% increase in NMNAT2 luciferase activity)
1 | Cc1cccc(CNC(=O)C2CCc3c(c4ccccc4n3Cc3cccc(F)c3)C2)c1 (stereo not shown) [BC20224] | + (“+” >25% increase in NMNAT2 luciferase activity at >25 μM.)
2 | CCCCN(CC)Cc1ccc(CNC(=O)CCCc2cn(Cc3ccccc3F)c3ccccc23)o1 [BC20211] | +++ (“+++” >25% increase in NMNAT2 luciferase activity at ≤1 μM.)
3 | COc1cccc(CNC(=O)[C@H]2C[C@@H]2c2cn(Cc3ccc(C)cc3)c3ccccc23)c1 (racemic) [BC20299] | + (“+” >25% increase in NMNAT2 luciferase activity at >25 μM.)
4 | Cc1ccccc1Cn1cc(CCCC(=O)NC(C)Cc2ccco2)c2ccccc21 (stereo not shown) [BC20159] | ++ (“++” >25% increase in NMNAT2 luciferase activity at >1 μM ≤25 μM.)
5 | O=C(CCCc1cn(Cc2ccccc2F)c2ccccc12)N1CCN(C(=O)c2ccco2)CC1 [BC20129] | ++ (“++” >25% increase in NMNAT2 luciferase activity at >1 μM ≤25 μM.)
6 | COc1cccc(CNC(=O)C2CCCc3c2c2ccccc2n3Cc2cccc(F)c2)c1 (stereo not shown) [BC20375] | + (“+” >25% increase in NMNAT2 luciferase activity at >25 μM.)
7 | Cc1c(C)n(Cc2ccccc2F)c2ccc(C(=O)NCC3CCCO3)cc12 (stereo not shown) [BC20194] | + (“+” >25% increase in NMNAT2 luciferase activity at >25 μM.)
8 | Cc1ccc(C)c(Cn2c3c(c4ccccc42)CC(C(=O)NCc2ccccc2C)CC3)c1 (stereo not shown) [BC20185] | ++ (“++” >25% increase in NMNAT2 luciferase activity at >1 μM ≤25 μM.)
9 | COCCN(CCNC(=O)[C@H]1C[C@@H]1c1cn(Cc2cc(C)ccc2C)c2ccccc12)Cc1ccco1 (racemic) [BC20365] | + (“+” >25% increase in NMNAT2 luciferase activity at >25 μM.)
10 | Cc1ccc(CNC(=O)CCCc2cn(Cc3ccccc3C)c3ccccc23)o1 [BC20150] | ++ (“++” >25% increase in NMNAT2 luciferase activity at >1 μM ≤25 μM.)
11 | O=C(CCCc1cn(Cc2ccccc2F)c2ccccc12)NCC1CCCO1 (stereo not shown) [BC20123] | ++ (“++” >25% increase in NMNAT2 luciferase activity at >1 μM ≤25 μM.)
12 | Cc1ccc(C)c(Cn2cc3c4c(cccc42)C(=O)NCC3)c1 [BC20313] | + (“+” >25% increase in NMNAT2 luciferase activity at >25 μM.)
13 | O=C(NCCc1ccccc1)N1CCc2c(c3ccccc3n2Cc2cccc(F)c2)C1 [BC20311] | + (“+” >25% increase in NMNAT2 luciferase activity at >25 μM.)
14 | O=C(Cn1cc(C(=O)c2ccc(Cl)cc2)c2ccccc21)NCCc1ccccc1 [BC20215] | ++ (“++” >25% increase in NMNAT2 luciferase activity at >1 μM ≤25 μM.)
15 | Cc1ccccc1CNC(=O)c1ccc2c(c1)c(C)c(C)n2Cc1ccccc1C [BC20203] | ++ (“++” >25% increase in NMNAT2 luciferase activity at >1 μM ≤25 μM.)
16 | Cc1ccc(Cn2cc(C3CCN(Cc4cccc(F)c4)C(=O)C3)c3ccccc32)cc1 (stereo not shown) [BC20231] | ++ (“++” >25% increase in NMNAT2 luciferase activity at >1 μM ≤25 μM.)
17 | O=C(CCCc1cn(Cc2cccc(F)c2)c2ccccc12)NCC1CCCO1 (stereo not shown) [BC20137] | ++ (“++” >25% increase in NMNAT2 luciferase activity at >1 μM ≤25 μM.)

Row | Structure (SMILES) | E: compound efficacy for NMNAT2 activation (concentration giving >25% increase in NMNAT2 luciferase activity)
18 | Cc1ccccc1CN1CCC(c2cn(Cc3cccc(F)c3)c3ccccc23)CC1=O (stereo not shown) [BC20320] | + (“+” >25% increase in NMNAT2 luciferase activity at >25 μM.)
19 | CCCCN(CC)Cc1ccc(CNC(=O)CCCc2cn(Cc3cccc(F)c3)c3ccccc23)o1 [BC20212] | +++ (“+++” >25% increase in NMNAT2 luciferase activity at ≤1 μM.)
20 | O=C(Cn1cc(C(=O)c2ccc(Cl)cc2)c2ccccc21)NCc1ccccc1F [BC20177] | +++ (“+++” >25% increase in NMNAT2 luciferase activity at ≤1 μM.)
21 | Cc1cccc(CNC(=O)c2ccc3c(c2)c(C)c(C)n3Cc2ccccc2C)c1 [BC20204] | ++ (“++” >25% increase in NMNAT2 luciferase activity at >1 μM ≤25 μM.)
22 | O=C(CCCc1cn(Cc2ccccc2F)c2ccccc12)NCc1ccco1 [BC20121] | ++ (“++” >25% increase in NMNAT2 luciferase activity at >1 μM ≤25 μM.)
23 | CCOC(=O)Cn1cc(C2CCNC(=O)C2)c2ccccc21 (stereo not shown) [BC20235] | ++ (“++” >25% increase in NMNAT2 luciferase activity at >1 μM ≤25 μM.)
24 | O=C(Cn1c2c(c3ccccc31)CC(C(=O)NCc1ccco1)CC2)NCCc1ccccc1 (stereo not shown) [BC20291] | ++ (“++” >25% increase in NMNAT2 luciferase activity at >1 μM ≤25 μM.)
25 | Cc1cccc(CNC(=O)CCCc2cn(Cc3cccc(F)c3)c3ccccc23)c1 [BC20141] | + (“+” >25% increase in NMNAT2 luciferase activity at >25 μM.)
26 | Cc1ccccc1CNC(=O)C1CCc2c(c3ccccc3n2Cc2ccncc2)C1 (stereo not shown) [BC20280] | + (“+” >25% increase in NMNAT2 luciferase activity at >25 μM.)
27 | COc1ccccc1CNC(=O)c1ccc2c(c1)c(C)c(C)n2Cc1ccccc1F [BC20106] | ++ (“++” >25% increase in NMNAT2 luciferase activity at >1 μM ≤25 μM.)
28 | Cc1ccccc1Cn1c(C)c(C)c2cc(C(=O)NCc3cccc(F)c3)ccc21 [BC20202] | ++ (“++” >25% increase in NMNAT2 luciferase activity at >1 μM ≤25 μM.)
29 | Cc1c(C)n(Cc2cccc(F)c2)c2ccc(C(=O)N3CCc4occc4C3)cc12 [BC20250] | ++ (“++” >25% increase in NMNAT2 luciferase activity at >1 μM ≤25 μM.)
30 | O=C(Cn1c2c(c3ccccc31)CC(C(=O)NCc1cccnc1)CC2)NCc1ccco1 (stereo not shown) [BC20242] | + (“+” >25% increase in NMNAT2 luciferase activity at >25 μM.)
31 | Cc1ccc(C)c(Cn2c3c(c4ccccc42)CN(C(=O)Nc2cccc(C)c2C)CC3)c1 [BC20255] | + (“+” >25% increase in NMNAT2 luciferase activity at >25 μM.)
32 | Cc1ccc(C)c(Cn2c(C(F)F)c(CCC(=O)N(CCCN3CCOCC3)Cc3ccco3)c3ccccc32)c1 [BC20399] | ++ (“++” >25% increase in NMNAT2 luciferase activity at >1 μM ≤25 μM.)
33 | Cc1ccc(C)c(Cn2c3c(c4ccccc42)CN(C(=O)NCc2cccc(F)c2)CC3)c1 [BC20253] | + (“+” >25% increase in NMNAT2 luciferase activity at >25 μM.)
34 | Cc1cccc(NC(=O)c2ccc3c(c2)c(C)c(C)n3Cc2ccccc2F)c1C [BC20246] | ++ (“++” >25% increase in NMNAT2 luciferase activity at >1 μM ≤25 μM.)
